Assay results published in US10286032B2, “Pro-angiogenic fragments of prominin-1 and uses thereof” (Children's Medical Center Corporation, priority 2010, dated 2019).

What was measured:
endothelial cells [1] = assay: I125-VEGF binding to endothelial cells in the presence of peptide; type: cell-based
Procedure: (§1) 10000 cells were incubated in binding buffer containing 20 mM Hepes, 0.1% BSA and I^125-VEGF (12 ng/ml) for 3 h on ice.
(§2) In order to characterize the effect of the peptides on VEGF binding to endothelial and melanoma cells, the cells were incubated with various peptides (720 μg/ml) in the presence of I^125-VEGF (12 ng/ml) (FIG. 2). Peptide #237 increased VEGF binding to endothelial as well to melanoma cells. 10000 cells were incubated in binding buffer containing 20 mM Hepes, 0.1% BSA and I^125-VEGF (12 ng/ml) for 3 h on ice. Following 3 washings, the radioactive levels were determined by gamma counter. An increase of more than 25 times in I^125-VEGF binding was observed when peptide #237 was added to both kinds of cells. The other prominin-1 peptides examined had no effect on VEGF binding to endothelial cells.
Each of these peptides were tested for VEGF binding to endothelial cells and compared to peptide #237 at varying dilutions. The results are indicated herein in FIG. 7.
The inventors also investigated which amino acid residues in peptide #237 are important for the various angiogenic and VEGF related binding activity described herein. To achieve this, the inventors singly changed each of the 12 amino acid residues in peptide #237 to alanine and performed experiments examining the effect of the alanine substitution at various positions on endothelial cell binding to VEGF. A total of 12 alanine substituted peptides were made and tested: Ala-1, Ala-2, Ala-3, Ala-4, Ala-5, Ala-6, Ala-7, Ala-8, Ala-9, Ala-10, Ala-11, Ala-12, (SEQ. ID. NOS. 38-41, 3, 11, 42-47) wherein the number indicate the position where the alanine substitution occurred. In addition, a “flip #237” peptide having the sequence AAVVTTTQRQVRD (SEQ. ID. NO. 22) was also made and studied.

ear wound = assay: ear punch wound healing model; type: in vivo, mouse; conditions: for wound closure versus control (peptide #237): intraperitoneal treatment, C57BL mouse
[2] = system: ischemic hind limb blood flow; assay: hind limb ischemia model, intraperitoneal administration (Example 12); type: in vivo, mouse; conditions: for limb perfusion: intraperitoneally immediately following femoral artery occlusion, within three to six days
Procedure: Mice were ligated in one of their femoral arteries (the […]) to simulate hind limb ischemia. The blood flow was analyzed by machine for each mouse before and immediately after the procedure to evaluate if the femoral was ligated properly. Blood flow was compared with the non-operated leg by a laser Doppler imager. […] The ischemic limb is seen as the limb on left side in the laser Doppler images.
Representative evaluation of the ischemic (left side of each image) and non-ischemic (right side of each image) hind limbs, immediately after, and on days 4 and 14 after surgery. In FIG. 11, the white areas indicate normal perfusion with normal blood circulation and black areas indicate no blood flow in the ischemic left hind limb. […] Dark shaded areas within the white areas located at the distal ends of the limbs indicate […].
The blood flow of the ischemic hind limb is expressed as the ratio between the perfusion of the ischemic limb and the uninjured limb in FIG. 12.

B16-F10 melanoma cells = assay: I125-VEGF binding to melanoma cells in the presence of peptide; type: cell-based; conditions: peptide 720 μg/ml, I125-VEGF 12 ng/ml, 3 h on ice
Procedure: as §1, §2

[3] = system: cornea neovascularization; assay: corneal micropocket assay with VEGF pellet; type: in vivo, mouse; conditions: pellet 160 ng VEGF 165 + 1.3 ug #237; 5 days
Procedure: Vigorous vessel in-growth from the limbus at 5 days was recorded as a positive response.
In order to evaluate the modulating effect of peptide #237 on the angiogenesis process, a corneal micropocket assay was performed. Two kinds of pellets were created, both containing 160 ng carrier-free recombinant human VEGF 165 (R&D Systems, Minneapolis, Minn.), one of which contains 1.3 ug of #237 peptide. The pellets were implanted into micropockets created in the cornea of two groups of anesthetized mice (n=4). Through the use of standardized slow-release pellets, a predictable angiogenic response is generated over the course of 5 days and then quantified. The area of neovascularization was calculated as vessel area, which is calculated as the product of vessel length measured from the limbus and clock hours around the cornea, using the following equation: vessel area (mm^2)=[clock hours×vessel length (mm)×0.2 mm]. […] The in vivo experiment confirms that the peptide stimulates cell proliferation, and is therefore a good candidate to induce angiogenesis.

endothelial cells [4] = assay: Matrigel assay of endothelial cell migration in vivo (FACS of matrigel liberated cells); set-up: species or system C57bl mice; conditions: day 6; for endothelial cells among matrigel liberated cells (FACS, CD31): Matrigel with 500 ng VEGF, with or without 180 μg #237
Procedure: On day 6, animals were sacrificed and fluorescence-activated cell sorting (FACS) analysis was used for determination of the matrigel liberated cells. In order to distinguish the endothelial cells from hematopoietic cells, the cells were incubated with two antibodies CD31-PE and CD45-APC which are specific to endothelial cells and hematopoietic cells respectively.

[5] = system: ear wound neovascularization; assay: ear wound neovascularization model; type: in vivo, nude mouse; conditions: matrigel containing 180 μg peptide daily for 5 days; 2.25 mm punch; versus plain matrigel
Procedure: Microvascular in-growth into damaged tissue is an essential component of the normal healing process. In fact, wound therapy is often aimed at promoting neovascularization. The model consists of wounding the dorsal aspect of the ear of a nude mouse. A circular punch was used to create a standardized wound on a nude mouse ear. Constant diameter of wound is given by the size of the punch (2.25 mm), and the ears were treated daily with plain matrigel (FIG. 6A) or matrigel containing peptide #237 (180 μg) (FIG. 6B) for 5 days. […] In order to evaluate the wound neovascularization, the mice were inoculated by dextran-FITC which specifically labeled the endothelial cells, immediately after anesthetizing them.

[6] = system: ischemic hind limb blood flow; assay: hind limb ischemia model, local injection or pump (Example 11); type: in vivo, mouse; conditions: after 48 h
Procedure: FIG. 10A are laser doppler images showing the effects of direct injection of either saline or peptide #237 to the ischemic site (800 μg) in a mouse hind limb ischemia model. Mice were ligated in both of their femoral arteries to simulate hind limb ischemia. The blood flow in mice was analyzed by machine for each mouse before and immediately after the procedure to evaluate if the femoral was ligated properly. (Note that amino acid 12 of SEQ. ID. NO: 1 is alanine; this amino acid was substituted with […] in the Ala-12 substitution variant.)
FIG. 10B are laser doppler images showing the effects of injection by pumps of either the saline or peptide #237 to the ischemic site (800 μg) in a mouse hind limb ischemia model. Just the left femoral artery was ligated to simulate hind limb ischemia. Mice from group B were treated systemically by pumps that were implanted to the mouse's back one day prior to the procedure. […] The blood flow was analyzed by machine for each mouse before and immediately after the procedure to evaluate if the femoral was ligated properly. […]
The angiogenic effects of peptide #237 were investigated using the mouse hind limb ischemia model. […] The blood flow was analyzed by Laser Doppler perfusion imagery machine for each mouse before and immediately after the procedure to evaluate if the femoral was ligated properly. […]

DRVQVQTTTVVA [#237-V]
VEGF binding to endothelial cells over control levels (absence of any peptide) (endothelial cells [1]): promote VEGF binding to endothelial cells over control levels
wound closure versus control (peptide #237) (ear wound): significantly more wound closure
limb perfusion [2]: significantly improves limb perfusion

DAVQRQTTTVVA [Ala-2]
VEGF binding to endothelial cells over control levels (absence of any peptide) (endothelial cells [1]): promote VEGF binding to endothelial cells over control levels

DRVARQTTTVVA [Ala-4]
VEGF binding to endothelial cells over control levels (absence of any peptide) (endothelial cells [1]): promote VEGF binding to endothelial cells over control levels

VQRQTTTVVAGI
VEGF binding to endothelial cells over control levels (absence of any peptide) (endothelial cells [1]): promote VEGF binding to endothelial cells over control levels

DRVQMQTTTVVA [#237-M]
VEGF binding to endothelial cells over control levels (absence of any peptide) (endothelial cells [1]): promote VEGF binding to endothelial cells over control levels
wound closure versus control (peptide #237) (ear wound): significantly more wound closure

DRVQRATTTVVA [Ala-6]
VEGF binding to endothelial cells over control levels (absence of any peptide) (endothelial cells [1]): promote VEGF binding to endothelial cells over control levels

DRAQRQTTTVVA [Ala-3]
VEGF binding to endothelial cells over control levels (absence of any peptide) (endothelial cells [1]): promote VEGF binding to endothelial cells over control levels

DRVQQQTTTVVA [#237-Q]
VEGF binding to endothelial cells over control levels (absence of any peptide) (endothelial cells [1]): promote VEGF binding to endothelial cells over control levels
wound closure versus control (peptide #237) (ear wound): significantly more wound closure

DRVQRQTTTVVA (listed as Homo sapiens) [#237]
VEGF binding to endothelial cells over control levels (absence of any peptide) (endothelial cells [1]): promote VEGF binding to endothelial cells over control levels
increase in I125-VEGF binding (endothelial cells [1]; endothelial cells, peptide 720 μg/ml, I125-VEGF 12 ng/ml, 3 h on ice): more than 25 times
increase in I125-VEGF binding (B16-F10 melanoma cells): more than 25 times
increase in vessel density versus pellet without peptide [3]: 53%
endothelial cells relative to VEGF alone (endothelial cells [4]; 180 ug #237 added to the VEGF): six times more
endothelial cells among matrigel liberated cells (FACS, CD31) (endothelial cells [4]): 0.42%
neovascularization around the ear wound site [5]: significantly increased the neovascularization
wound area versus untreated mice (ear wound; MATRIGEL containing peptide daily for 14 days, day 14, 1 mm wound): significantly smaller
recovery of the blood flow in the ischemic site ([6]; local injection to the ischemic site (800 ug)): complete recovery of the blood flow
recovery of the blood flow in the ischemic site ([6]; slow release via pump 0.5 ug/hour): complete recovery of the blood flow
blood flow recovery compared to saline treated mice (laser Doppler images) ([2]; days 4 and 14 after surgery): increased blood flow recovery
limb perfusion [2]: significantly improves limb perfusion

DRVQRQTTTVVG [Ala-12, glycine substitution at position 12, which is naturally alanine]
VEGF binding to endothelial cells over control levels (absence of any peptide) (endothelial cells [1]): promote VEGF binding to endothelial cells over control levels

DRVQRQATTVVA [Ala-7]
VEGF binding to endothelial cells over control levels (absence of any peptide) (endothelial cells [1]): promote VEGF binding to endothelial cells over control levels

DRVQAQTTTVVA [Ala-5]
VEGF binding to endothelial cells over control levels (absence of any peptide) (endothelial cells [1]): promote VEGF binding to endothelial cells over control levels
ability of endothelial cells to bind VEGF compared to original #237 (endothelial cells [1]; alanine substitution screen): more than twice

VEGF
endothelial cells among matrigel liberated cells (FACS, CD31) (endothelial cells [4]): 0.07%

RVQRQTTTVVAG
VEGF binding to endothelial cells over control levels (absence of any peptide) (endothelial cells [1]): promote VEGF binding to endothelial cells over control levels
